Target: T1, mAChR M4 (Homo sapiens, UniProt P08173)
T1 construct: expressed in transfected cells; host or cells: CHO-K1 cells stably transfected with M4 cDNA and chimeric G-protein Gqi5
T1 sequence (P08173 1-479): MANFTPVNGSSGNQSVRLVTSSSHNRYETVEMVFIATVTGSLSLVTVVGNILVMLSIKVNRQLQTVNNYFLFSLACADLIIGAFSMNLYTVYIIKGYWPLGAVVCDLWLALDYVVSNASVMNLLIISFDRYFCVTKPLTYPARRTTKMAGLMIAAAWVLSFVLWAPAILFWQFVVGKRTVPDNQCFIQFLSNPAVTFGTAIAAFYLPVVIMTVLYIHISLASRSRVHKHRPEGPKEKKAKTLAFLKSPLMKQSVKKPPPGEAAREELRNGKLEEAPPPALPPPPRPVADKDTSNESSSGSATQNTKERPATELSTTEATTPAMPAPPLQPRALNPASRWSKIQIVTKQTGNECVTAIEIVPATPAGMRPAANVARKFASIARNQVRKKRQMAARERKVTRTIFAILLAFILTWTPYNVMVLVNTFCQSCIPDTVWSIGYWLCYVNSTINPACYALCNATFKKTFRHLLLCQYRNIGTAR
Experiment: mAChR M4 cell-based functional assay (calcium mobilization, potentiation of EC20 acetylcholine response)
Settings: for Emax at 30 µM: % ACh maximum at 30 μM; for EC50: mAChR M4 cell-based functional assay, >10,000 estimated for low potency compounds without plateau, read-out: EC50

| Compound | Emax at 30 µM [%] | EC50 [nM] |
| --- | --- | --- |
| Cc1nnc2sc(C(=O)NC3CN(C(=O)c4cccs4)C3)c(N)c2c1C [Example B128] | 78 | 31 |
| Cc1nnc2sc(C(=O)NC3CN(C(=O)CCc4ccccc4)C3)c(N)c2c1C [Example B129] | 80 | 110 |
| Cc1nnc2sc(C(=O)NC3CN(C(=O)c4ccc5ccccc5c4)C3)c(N)c2c1C [Example B130] | 79 | 97 |
| Cc1nnc2sc(C(=O)NC3CN(C(=O)c4ccc(F)c(F)c4)C3)c(N)c2c1C [Example B131] | 76 | 150 |
| Cc1nnc2sc(C(=O)NCc3ccc(S(=O)(=O)CF)cc3)c(N)c2c1C [Example B132] | 66 | 19 |
| Cc1nnc2sc(C(=O)NC3CN(C(=O)c4ccc5c(c4)OCO5)C3)c(N)c2c1C [Example B133] | 74 | 76 |
| CC(=O)N1CC(NC(=O)c2sc3nnc(C)c(C)c3c2N)C1 [Example B134] | 67 | 520 |
| Cc1nnc2sc(C(=O)NC3CN(C(=O)C4CC4)C3)c(N)c2c1C [Example B135] | 73 | 230 |
| Cc1nnc2sc(C(=O)NC3CN(S(=O)(=O)c4cn(C)cn4)C3)c(N)c2c1C [Example B136] | 72 | 1000 |
| COc1cccc(S(=O)(=O)N2CC(NC(=O)c3sc4nnc(C)c(C)c4c3N)C2)c1 [Example B137] | 70 | 100 |
| Cc1cccc(S(=O)(=O)N2CC(NC(=O)c3sc4nnc(C)c(C)c4c3N)C2)c1 [Example B138] | 65 | 57 |
| Cc1nnc2sc(C(=O)NC3CN(S(=O)(=O)c4cccc(Cl)c4F)C3)c(N)c2c1C [Example B139] | 65 | 54 |
| Cc1nnc2sc(C(=O)NC3CN(S(=O)(=O)c4ccccc4F)C3)c(N)c2c1C [Example B140] | 72 | 43 |
| Cc1nnc2sc(C(=O)NC3CN(S(=O)(=O)c4ccc5ncccc5c4)C3)c(N)c2c1C [Example B141] | 92 | 85 |
| CCS(=O)(=O)N1CC(NC(=O)c2sc3nnc(C)c(C)c3c2N)C1 [Example B142] | 77 | 290 |
| Cc1nnc2sc(C(=O)NC3CN(S(=O)(=O)c4cccc5c4OCCC5)C3)c(N)c2c1C [Example B143] | 90 | 120 |
| COc1ccc(S(=O)(=O)N2CC(NC(=O)c3sc4nnc(C)c(C)c4c3N)C2)cc1 [Example B144] | 87 | 140 |
| Cc1ccc(S(=O)(=O)N2CC(NC(=O)c3sc4nnc(C)c(C)c4c3N)C2)cc1F [Example B145] | 82 | 130 |
| Cc1nnc2sc(C(=O)NC3CN(S(=O)(=O)c4ccc(F)cc4F)C3)c(N)c2c1C [Example B146] | 82 | 66 |
| Cc1nnc2sc(C(=O)NC3CN(S(=O)(=O)c4ccc(C(F)(F)F)cc4)C3)c(N)c2c1C [Example B147] | 95 | 87 |
| Cc1nnc2sc(C(=O)NCC3CCS(=O)(=O)C3)c(N)c2c1C (stereo not drawn) [Example B148] | 50 | > 10000 |

| Compound | Emax at 30 µM [%] | EC50 [nM] |
| --- | --- | --- |
| Cc1nnc2sc(C(=O)NCC3CCS(=O)(=O)CC3)c(N)c2c1C [Example B149] | 44 | > 10000 |
| Cc1nnc2sc(C(=O)NC3CN(C(=O)c4ccncc4)C3)c(N)c2c1C [Example B150] | 62 | 190 |
| Cc1nnc2sc(C(=O)NC3CN(C(=O)Oc4ccccc4)C3)c(N)c2c1C [Example B151] | 57 | 9.5 |
| CCCCCC(=O)N1CC(NC(=O)c2sc3nnc(C)c(C)c3c2N)C1 [Example B152] | 85 | 110 |
| COC(=O)N1CC(NC(=O)c2sc3nnc(C)c(C)c3c2N)C1 [Example B153] | 83 | 230 |
| Cc1nnc2sc(C(=O)NC3CN(C(=O)Cc4cccs4)C3)c(N)c2c1C [Example B154] | 88 | 70 |
| Cc1nnc2sc(C(=O)NC3CN(C(=O)c4ccc(F)cc4)C3)c(N)c2c1C [Example B155] | 91 | 93 |
| Cc1nnc2sc(C(=O)N3CCC(c4ccncc4)C3)c(N)c2c1C (stereo not drawn) [Example B156] | 53 | 2200 |
| CC(=O)NC1CN(C(=O)c2sc3nnc(C)c(C)c3c2N)C1 [Example B157] | 32 | > 10000 |
| Cc1nnc2sc(C(=O)NCc3ccc(O)c(F)c3)c(N)c2c1C [Example B158] | 66 | 28 |
| Cc1nnc2sc(C(=O)NC3CN(S(=O)(=O)c4ccccc4)C3)c(N)c2c1C [Example B159] | 56 | 81 |
| Cc1nnc2sc(C(=O)NC3CN(C(=O)c4ccccc4)C3)c(N)c2c1C [Example B160] | 71 | 78 |
| COc1ccc(C(=O)N2CC(NC(=O)c3sc4nnc(C)c(C)c4c3N)C2)c(OC)c1 [Example B161] | 61 | 200 |
| COCOc1ccc(CNC(=O)c2sc3nnc(C)c(C)c3c2N)cc1F [Example B162] | 66 | 17 |
| Cc1nnc2sc(C(=O)N3CCC(c4ccccc4)C3C)c(N)c2c1C (stereo not drawn) [Example B163] | 54 | 240 |
| COc1ccc(C2CCN(C(=O)c3sc4nnc(C)c(C)c4c3N)C2)cc1 (stereo not drawn) [Example B164] | 39 | 280 |
| CCCOC(=O)NC(CCl)CNC(=O)c1sc2nnc(C)c(C)c2c1N (stereo not drawn) [Example B165] | 32 | > 10000 |
| Cc1nnc2sc(C(=O)N3CC(NC(=O)C4CC4)C3)c(N)c2c1C [Example B166] | 41 | 3100 |
| Cc1nnc2sc(C(=O)N3CC(NC(=O)Oc4ccccc4)C3)c(N)c2c1C [Example B167] | 65 | 470 |
| Cc1nnc2sc(C(=O)NCc3ccc(OC(F)F)cc3)c(N)c2c1C [Example B168] | 76 | 13 |

Now from value to compound:

| Emax at 30 µM [%] | EC50 [nM] | Compound |
| --- | --- | --- |
| 68 | 1500 | Cc1nnc2sc(C(=O)N3CC(NC(=O)c4ccccc4)C3)c(N)c2c1C [Example B169] |
| 60 | 470 | COC1(c2ccccc2)CN(C(=O)c2sc3nnc(C)c(C)c3c2N)C1 [Example B170] |
| 71 | 23 | COc1ccc(CNC(=O)c2sc3nnc(C)c(C)c3c2N)cc1C(F)(F)F [Example B171] |
| 51 | > 10000 | Cc1nnc2sc(C(=O)N3CC(NS(C)(=O)=O)C3)c(N)c2c1C [Example B172] |
| 56 | 170 | Cc1nnc2sc(C(=O)N3CC(F)(c4ccccc4)C3)c(N)c2c1C [Example B173] |
| 51 | 6700 | Cc1nnc2sc(C(=O)N3CC(NS(=O)(=O)c4cn(C)cn4)C3)c(N)c2c1C [Example B174] |
| 52 | > 10000 | CCCCCC(=O)NC1CN(C(=O)c2sc3nnc(C)c(C)c3c2N)C1 [Example B175] |
| 73 | 23 | Cc1nnc2sc(C(=O)NCc3ccc(OCC(F)F)cc3)c(N)c2c1C [Example B176] |
| 53 | 970 | Cc1nnc2sc(C(=O)N3CC(NC(=O)CCc4ccccc4)C3)c(N)c2c1C [Example B177] |
| 60 | 1700 | CCCOC(=O)NC1CN(C(=O)c2sc3nnc(C)c(C)c3c2N)C1 [Example B178] |
| 33 | 920 | Cc1nnc2sc(C(=O)N3CC(O)(c4ccccc4)C3)c(N)c2c1C [Example B179] |
| 43 | 1100 | Cc1nnc2sc(C(=O)N3CC(NS(=O)(=O)c4cccc5ncccc45)C3)c(N)c2c1C [Example B180] |
| 68 | 30 | Cc1nnc2sc(C(=O)NCc3ccc(OC(F)(F)F)cc3)c(N)c2c1C [Example B181] |
| 59 | 2300 | Cc1nnc2sc(C(=O)N3CC(NC(=O)C4CC4c4ccccc4)C3)c(N)c2c1C (stereo not drawn) [Example B182] |
| 47 | 490 | Cc1ccc(S(=O)(=O)NC2CN(C(=O)c3sc4nnc(C)c(C)c4c3N)C2)cc1 [Example B183] |
| 48 | 1900 | Cc1nnc2sc(C(=O)N3CC(NC(=O)c4ccncc4)C3)c(N)c2c1C [Example B184] |
| 54 | 1800 | Cc1nnc2sc(C(=O)N3CC(NC(=O)C4CCCCC4)C3)c(N)c2c1C [Example B185] |
| 56 | 900 | CC(O)(c1ccc(CNC(=O)c2sc3nnc4c(c3c2N)CCCC4)cc1)C(F)(F)F (stereo not drawn) [Example B188] |
| 42 | 420 | Nc1c(C(=O)NCc2ccc(S(=O)(=O)C(F)(F)F)cc2)sc2nnc3c(c12)CCCC3 [Example B189] |
| 53 | 560 | Cc1nnc2sc(C(=O)N3CC(NC(=O)OCc4ccccc4)C3)c(N)c2c1C [Example B190] |
| 45 | 2100 | Cc1nnc2sc(C(=O)N3CC(Br)(c4ccccc4)C3)c(N)c2c1C [Example B191] |
| 51 | 1800 | Cc1nnc2sc(C(=O)N[C@@H]3CCN(c4ccccc4)C3)c(N)c2c1C [Example B192] |

Reference: patent publication US9868746B2, “Substituted 5-aminothieno[2,3-C]pyridazine-6-carboxamide analogs as positive allosteric modulators of the muscarinic acetylcholine receptor M4” (Vanderbilt University, priority 2012, dated 2018)
